EP4772634A1, “DOUBLE-STRANDED RNA TARGETING COAGULATION FACTOR XI” (Chia Tai Tianqing Pharmaceutical Group Co., Ltd., priority 2023, dated 2025)

Key:
[1] = system: human coagulation factor XI protein; test: In vivo activity in human coagulation factor XI model mice (Experimental Example 3), plasma FXI protein by ELISA; conditions: humanized mice
Experimental: The humanized mice used in this experimental example were purchased from Cyagen Biosciences Co., Ltd. The humanized mice were randomly divided into groups, with 4 mice per group. The compound and PBS control (pH = 7.2) were administered to each group of mice, respectively. The day of the first administration was designated as day 0 of the experiment. The corresponding compound solutions were administered via a single subcutaneous injection based on animal body weight, at administration doses of 1 mg/kg and 5 mg/kg. PBS control mice were each administered PBS, with an administration volume of 10 mL/kg body weight. Orbital blood was collected before administration and on day 7, day 14, day 28, day 42, and day 63 after administration. Plasma was separated, and the content of the coagulation factor XI protein in the plasma was measured at each time point.
About 165 µL of blood was collected from the orbital veins for plasma collection. A 3.8% trisodium citrate anticoagulant was added to the whole blood in a volume ratio of 1:9 (anticoagulant:[…], v/v), and the mixture was centrifuged at 3000 rpm at 20 °C for 15 min to collect plasma. The content of the coagulation factor XI protein in the plasma obtained from the above groups of mice (test groups administered the compound and PBS control group) was measured using a Human Coagulation Factor XI ELISA kit (Sigma, Cat. No. RAB1385-1KT).
(§1) The coagulation factor XI protein inhibition rate was calculated according to the following equation: [formula]
Table 11 lists the measurement of FXI protein content in animal plasma before and on day 7, day 14, day 28, day 42, and day 63 after a single subcutaneous administration of siRNA ligand conjugates (TD01M01L01, TD02M01L01) at doses of 1 mg/kg and 5 mg/kg to humanized homozygous mice. […] Table 11. In vivo experimental design

[2] = system: human coagulation factor XI protein; test: In vivo activity in AAV-FXI model mice, serum FXI protein by ELISA; conditions: AAV-FXI mice (C57BL/6 male), single subcutaneous 3 mg/kg
Experimental: 4-6 week old C57BL/6 male mice were injected via the tail vein with 1 × 10^11 vg of AAV8-FXI (WZ Biosciences). On day 28 after modeling, mice with an hFXI protein content of greater than 100 ng/mL were selected. The mice were randomly divided into groups based on body weight and were injected with 3 mg/kg of the dsRNA ligand conjugate of the present application (amount calculated based on siRNA only) on day 0. Orbital blood was collected on day 7, day 14, day 35, and day 56. Serum was separated, and the content of the coagulation factor XI protein in the serum at each time point was measured using a Human Coagulation Factor XI ELISA kit (Thermo, Cat. No. EH118RB).
as §1
The content of the coagulation factor XI protein in animal serum was measured before and on day 7, day 14, day 35, and day 56 after a single subcutaneous administration of the dsRNA ligand conjugate of the present application at a dose of 3 mg/kg to AAV-FXI mice (see Table 15). […] Table 15. In vivo experimental design

[3] = system: activated partial thromboplastin time (APTT); test: In vivo activity in cynomolgus monkeys, activated partial thromboplastin time in plasma; conditions: cynomolgus monkey plasma, subcutaneous once, 14 mg/kg (second row, dose by order of Table 17)
Experimental: On day 7 before administration, female cynomolgus monkeys weighing 2-4 kg were fasted overnight, and about 1 mL of blood was collected from the femoral vein. Plasma was collected by centrifugation. FXI protein (Human Coagulation Factor XI ELISAkit, Thermo, Cat. No. EH118RB), FXI activity (coagulation factor XI assay kit, Stago, Cat. No. 00723), and APTT (activated partial thromboplastin time assay kit, Stago, Cat. No. 00595) were measured. The monkeys were evenly divided into groups based on these indicators. On day 0, the dsRNA ligand conjugates of the present application (TD02M02L01, etc.) were injected. On day 0, day 3, day 7, day 14, day 21, day 28, day 37, day 54, and day 68, plasma was collected to measure plasma FXI protein, FXI activity, and activated partial thromboplastin time (APTT).
The activated partial thromboplastin time prolongation rate was calculated according to the following equation: [formula]
The content of the coagulation factor XI protein, the FXI activity, and the activated partial thromboplastin time in animal plasma were measured before and on day 0, day 3, day 7, day 14, day 21, day 28, day 37, day 54, and day 68 after the subcutaneous administration of the dsRNA ligand conjugates of the present application at doses of 4.2 mg/kg and 14 mg/kg to cynomolgus monkeys (Table 17). […] Table 17. In vivo experimental design

[4] = system: human coagulation factor XI protein; test: In vivo activity in human coagulation factor XI model mice (Experimental Example 4), FXI protein by ELISA; conditions: female humanized homozygous mice, single subcutaneous 3 mg/kg
Experimental: The humanized mice used in this experimental example were purchased from Cyagen Biosciences Co., Ltd. The female humanized homozygous mice were randomly divided into groups, with 4 mice per group. The compound and PBS control (pH = 7.2) were administered to each group of mice, respectively. The day of the first administration was designated as day 0 of the experiment. The corresponding compound solutions were administered via a single subcutaneous injection based on animal body weight, at an administration dose of 3 mg/kg. PBS control mice were each administered PBS, with an administration volume of 10 mL/kg body weight. Orbital blood was collected before administration and on day 3, day 7, day 14, day 21, day 28, day 42, day 56, and day 70 after administration. Serum was separated, and the content of the coagulation factor XI protein in the serum at each time point was measured using a Human Coagulation Factor XI ELISA kit (Thermo, Batch No. 2350072722, Cat. No. EH118RB).
as §1
Table 13 lists the measurement of coagulation factor XI protein content in animal plasma before and on day 3, day 7, day 14, day 21, day 28, day 42, day 56, and day 70 after a single subcutaneous administration of siRNA ligand conjugates at a dose of 3 mg/kg to humanized homozygous mice. […] Table 13. In vivo experimental design

TD02M02L01: dsRNA ligand conjugate: TD02M02 with L01 (GalNAc) ligand at 3' end of sense strand SEQ ID NO 35; antisense SEQ ID NO 36 (sense GGATGATTTTCTTATATCA; antisense TGATATAAGAAAATCATCCTG; GalNAc L01 ligand at sense 3' end, 2'-OMe/2'-F, pattern not given here)
Relative inhibition rate (%) of FXI protein ([1]; single subcutaneous 1 mg/kg, D7): 66.7% | Relative inhibition rate (%) of FXI protein ([1]; single subcutaneous 1 mg/kg, D14): 70.2% | Relative inhibition rate (%) of FXI protein ([1]; single subcutaneous 1 mg/kg, D28): 58.6% | Relative inhibition rate (%) of FXI protein ([1]; single subcutaneous 1 mg/kg, D42): 70.5% | Relative inhibition rate (%) of FXI protein ([1]; single subcutaneous 1 mg/kg, D63): 47.0% | Relative inhibition rate (%) of FXI protein ([1]; single subcutaneous 5 mg/kg, D7): 91.5% | Relative inhibition rate (%) of FXI protein ([1]; single subcutaneous 5 mg/kg, D14): 93.5% | Relative inhibition rate (%) of FXI protein ([1]; single subcutaneous 5 mg/kg, D28): 88.4% | Relative inhibition rate (%) of FXI protein ([1]; single subcutaneous 5 mg/kg, D42): 86.9% | Relative inhibition rate (%) of FXI protein ([1]; single subcutaneous 5 mg/kg, D63): 66.3% | Relative inhibition rate (%) of FXI protein ([2]; D7): 96.3% | Relative inhibition rate (%) of FXI protein ([2]; D14): 97.3% | Relative inhibition rate (%) of FXI protein ([2]; D35): 86.0% | Relative inhibition rate (%) of FXI protein ([2]; D56): 57.4% | Relative prolongation rate (%) of APTT ([3]; D3): 6.0% | Relative prolongation rate (%) of APTT ([3]; D7): 25.2% | Relative prolongation rate (%) of APTT ([3]; D14): 60.9% | Relative prolongation rate (%) of APTT ([3]; D21): 116.0% | Relative prolongation rate (%) of APTT ([3]; D28): 70.6% | Relative prolongation rate (%) of APTT ([3]; D37): 100.3% | Relative prolongation rate (%) of APTT ([3]; D54): 124.4% | Relative prolongation rate (%) of APTT ([3]; D68): 132.4% | Relative inhibition rate (%) of FXI protein ([4]; D3): 74.4% | Relative inhibition rate (%) of FXI protein ([4]; D7): 93.7% | Relative inhibition rate (%) of FXI protein ([4]; D14): 86.4% | Relative inhibition rate (%) of FXI protein ([4]; D21): 88.0% | Relative inhibition rate (%) of FXI protein ([4]; D28): 84.9% | Relative inhibition rate (%) of FXI protein ([4]; D42): 63.3% | Relative inhibition rate (%) of FXI protein ([4]; D56): 50.4% | Relative inhibition rate (%) of FXI protein ([4]; D70): 21.4%
